In ChEMBL document CHEMBL3045546, “Synthesis and antimicrobial screening of 4-thiazolidinone and 2-azetidinone derivatives of piperazine” (2013):
In brackets after ≈: the same amount, converted by molar mass.

Legend:
Format in all cases: functional
Trichoderma viride = experiment: Antimicrobial activity against Hypocrea rufa ATCC 52440 assessed as growth inhibition by broth dilution method
Klebsiella pneumoniae = experiment: Antimicrobial activity against Klebsiella pneumoniae ATCC 13883 assessed as growth inhibition by broth dilution method
Aspergillus fumigatus = experiment: Antimicrobial activity against Aspergillus fumigatus assessed as growth inhibition by broth dilution method
Staphylococcus aureus = experiment: Antimicrobial activity against Staphylococcus aureus ATCC 25923 assessed as growth inhibition by broth dilution method
Candida albicans = experiment: Antimicrobial activity against Candida albicans ATCC 10231 assessed as growth inhibition by broth dilution method
Fusarium solani = experiment: Antimicrobial activity against Fusarium solani ATCC 38136 assessed as growth inhibition by broth dilution method
Staphylococcus hominis = experiment: Antimicrobial activity against Staphylococcus hominis ATCC 27844 assessed as growth inhibition by broth dilution method
Aspergillus flavus = experiment: Antimicrobial activity against Aspergillus flavus ATCC 15517 assessed as growth inhibition by broth dilution method
Pseudomonas aeruginosa = experiment: Antimicrobial activity against Pseudomonas aeruginosa ATCC 10145 assessed as growth inhibition by broth dilution method
Microsporum canis = experiment: Antimicrobial activity against Arthroderma otae ATCC 11622 assessed as growth inhibition by broth dilution method
Bacillus cereus = experiment: Antimicrobial activity against Bacillus cereus ATCC 11778 assessed as growth inhibition by broth dilution method
Micrococcus luteus = experiment: Antimicrobial activity against Micrococcus luteus ATCC 4698 assessed as growth inhibition by broth dilution method
Rhizoctonia solani = experiment: Antimicrobial activity against Rhizoctonia solani ATCC 76131 assessed as growth inhibition by broth dilution method
[1] = test system: Staphylococcus epidermidis; experiment: Antimicrobial activity against Staphylococcus epidermidis ATCC 12228 assessed as growth inhibition by broth dilution method
Alternaria alternata = experiment: Antimicrobial activity against Alternaria alternata ATCC 66868 assessed as growth inhibition by broth dilution method
Proteus vulgaris = experiment: Antimicrobial activity against Proteus vulgaris ATCC 13315 assessed as growth inhibition by broth dilution method
Bacillus pumilus = experiment: Antimicrobial activity against Bacillus pumilus ATCC 14884 assessed as growth inhibition by broth dilution method
Salmonella typhi = experiment: Antimicrobial activity against Salmonella enterica subsp. enterica serovar Typhi ATCC 19430 assessed as growth inhibition by broth dilution method
Proteus mirabilis = experiment: Antimicrobial activity against Proteus mirabilis ATCC 49565 assessed as growth inhibition by broth dilution method
Escherichia coli = experiment: Antimicrobial activity against Escherichia coli ATCC 25922 assessed as growth inhibition by broth dilution method
Trichophyton longifusum = experiment: Antimicrobial activity against Trichophyton longifusum ATCC 22397 assessed as growth inhibition by broth dilution method
Aspergillus niger = experiment: Antimicrobial activity against Aspergillus niger ATCC 9142 assessed as growth inhibition by broth dilution method
Bacillus subtilis = experiment: Antimicrobial activity against Bacillus subtilis ATCC 6633 assessed as growth inhibition by broth dilution method
Aspergillus awamori = experiment: Antimicrobial activity against Aspergillus awamori ATCC 22342 assessed as growth inhibition by broth dilution method

## O=C1CSC(c2cccc(O)c2)N1CCN1CCNCC1 (stereo unspecified)
Trichoderma viride
  MIC: 37.5 µg/mL (≈ 122 µM)
Klebsiella pneumoniae
  MIC: 37.5 µg/mL (≈ 122 µM)
Aspergillus fumigatus
  MIC: 37.5 µg/mL (≈ 122 µM)
Staphylococcus aureus
  MIC: 37.5 µg/mL (≈ 122 µM)
Candida albicans
  MIC: 37.5 µg/mL (≈ 122 µM)
Fusarium solani
  MIC: 75 µg/mL (≈ 244 µM)
Staphylococcus hominis
  MIC: 37.5 µg/mL (≈ 122 µM)
Aspergillus flavus
  MIC: 37.5 µg/mL (≈ 122 µM)
Pseudomonas aeruginosa
  MIC: 37.5 µg/mL (≈ 122 µM)
Microsporum canis
  MIC: 37.5 µg/mL (≈ 122 µM)
Bacillus cereus
  MIC: 18.8 µg/mL (≈ 61 µM)
Micrococcus luteus
  MIC: 18.8 µg/mL (≈ 61 µM)
Rhizoctonia solani
  MIC: 37.5 µg/mL (≈ 122 µM)
[1]
  MIC: 18.8 µg/mL (≈ 61 µM)
Alternaria alternata
  MIC: 75 µg/mL (≈ 244 µM)
Proteus vulgaris
  MIC: 37.5 µg/mL (≈ 122 µM)
Bacillus pumilus
  MIC: 37.5 µg/mL (≈ 122 µM)
Salmonella typhi
  MIC: 18.8 µg/mL (≈ 61 µM)
Proteus mirabilis
  MIC: 18.8 µg/mL (≈ 61 µM)
Escherichia coli
  MIC: 37.5 µg/mL (≈ 122 µM)
Trichophyton longifusum
  MIC: 37.5 µg/mL (≈ 122 µM)
Aspergillus niger
  MIC: 37.5 µg/mL (≈ 122 µM)
Bacillus subtilis
  MIC: 37.5 µg/mL (≈ 122 µM)
Aspergillus awamori
  MIC: 37.5 µg/mL (≈ 122 µM)

## O=C(CCl)N1CCN(CCN2C(=O)C(Cl)C2c2ccc(O)cc2)CC1 (stereo unspecified)
Trichoderma viride
  MIC: 9.37 µg/mL (≈ 24.3 µM)
Klebsiella pneumoniae
  MIC: 9.37 µg/mL (≈ 24.3 µM)
Aspergillus fumigatus
  MIC: 9.37 µg/mL (≈ 24.3 µM)
Staphylococcus aureus
  MIC: 9.37 µg/mL (≈ 24.3 µM)
Candida albicans
  MIC: 18.8 µg/mL (≈ 48.5 µM)
Fusarium solani
  MIC: 18.8 µg/mL (≈ 48.5 µM)
Staphylococcus hominis
  MIC: 9.37 µg/mL (≈ 24.3 µM)
Aspergillus flavus
  MIC: 9.37 µg/mL (≈ 24.3 µM)
Pseudomonas aeruginosa
  MIC: 9.37 µg/mL (≈ 24.3 µM)
Microsporum canis
  MIC: 9.37 µg/mL (≈ 24.3 µM)
Bacillus cereus
  MIC: 9.37 µg/mL (≈ 24.3 µM)
Micrococcus luteus
  MIC: 9.37 µg/mL (≈ 24.3 µM)
Rhizoctonia solani
  MIC: 9.37 µg/mL (≈ 24.3 µM)
[1]
  MIC: 9.37 µg/mL (≈ 24.3 µM)
Alternaria alternata
  MIC: 18.8 µg/mL (≈ 48.5 µM)
Proteus vulgaris
  MIC: 4.68 µg/mL (≈ 12.1 µM)
Bacillus pumilus
  MIC: 9.37 µg/mL (≈ 24.3 µM)
Salmonella typhi
  MIC: 9.37 µg/mL (≈ 24.3 µM)
Proteus mirabilis
  MIC: 9.37 µg/mL (≈ 24.3 µM)
Escherichia coli
  MIC: 4.68 µg/mL (≈ 12.1 µM)
Trichophyton longifusum
  MIC: 18.8 µg/mL (≈ 48.5 µM)
Aspergillus niger
  MIC: 9.37 µg/mL (≈ 24.3 µM)
Bacillus subtilis
  MIC: 9.37 µg/mL (≈ 24.3 µM)
Aspergillus awamori
  MIC: 9.37 µg/mL (≈ 24.3 µM)

## COc1cc(C2SCC(=O)N2CCN2CCNCC2)ccc1O (stereo unspecified)
Trichoderma viride
  MIC: 18.8 µg/mL (≈ 55.6 µM)
Klebsiella pneumoniae
  MIC: 9.37 µg/mL (≈ 27.8 µM)
Aspergillus fumigatus
  MIC: 18.8 µg/mL (≈ 55.6 µM)
Staphylococcus aureus
  MIC: 9.37 µg/mL (≈ 27.8 µM)
Candida albicans
  MIC: 18.8 µg/mL (≈ 55.6 µM)
Fusarium solani
  MIC: 9.73 µg/mL (≈ 28.8 µM)
Staphylococcus hominis
  MIC: 9.37 µg/mL (≈ 27.8 µM)
Aspergillus flavus
  MIC: 18.8 µg/mL (≈ 55.6 µM)
Pseudomonas aeruginosa
  MIC: 9.37 µg/mL (≈ 27.8 µM)
Microsporum canis
  MIC: 18.8 µg/mL (≈ 55.6 µM)
Bacillus cereus
  MIC: 9.37 µg/mL (≈ 27.8 µM)
Micrococcus luteus
  MIC: 4.68 µg/mL (≈ 13.9 µM)
Rhizoctonia solani
  MIC: 18.8 µg/mL (≈ 55.6 µM)
[1]
  MIC: 9.37 µg/mL (≈ 27.8 µM)
Alternaria alternata
  MIC: 9.73 µg/mL (≈ 28.8 µM)
Proteus vulgaris
  MIC: 9.37 µg/mL (≈ 27.8 µM)
Bacillus pumilus
  MIC: 9.37 µg/mL (≈ 27.8 µM)
Salmonella typhi
  MIC: 9.37 µg/mL (≈ 27.8 µM)
Proteus mirabilis
  MIC: 9.37 µg/mL (≈ 27.8 µM)
Escherichia coli
  MIC: 9.37 µg/mL (≈ 27.8 µM)
Trichophyton longifusum
  MIC: 9.73 µg/mL (≈ 28.8 µM)
Aspergillus niger
  MIC: 9.73 µg/mL (≈ 28.8 µM)
Bacillus subtilis
  MIC: 9.37 µg/mL (≈ 27.8 µM)
Aspergillus awamori
  MIC: 9.73 µg/mL (≈ 28.8 µM)

## COc1cc(C2C(Cl)C(=O)N2CCN2CCN(C(=O)CCl)CC2)ccc1O (stereo unspecified)
Trichoderma viride
  MIC: 18.8 µg/mL (≈ 45 µM)
Klebsiella pneumoniae
  MIC: 9.37 µg/mL (≈ 22.5 µM)
Aspergillus fumigatus
  MIC: 18.8 µg/mL (≈ 45 µM)
Staphylococcus aureus
  MIC: 9.37 µg/mL (≈ 22.5 µM)
Candida albicans
  MIC: 9.37 µg/mL (≈ 22.5 µM)
Fusarium solani
  MIC: 18.8 µg/mL (≈ 45 µM)
Staphylococcus hominis
  MIC: 9.37 µg/mL (≈ 22.5 µM)
Aspergillus flavus
  MIC: 9.37 µg/mL (≈ 22.5 µM)
Pseudomonas aeruginosa
  MIC: 4.68 µg/mL (≈ 11.2 µM)
Microsporum canis
  MIC: 18.8 µg/mL (≈ 45 µM)
Bacillus cereus
  MIC: 9.37 µg/mL (≈ 22.5 µM)
Micrococcus luteus
  MIC: 4.68 µg/mL (≈ 11.2 µM)
Rhizoctonia solani
  MIC: 9.37 µg/mL (≈ 22.5 µM)
[1]
  MIC: 9.37 µg/mL (≈ 22.5 µM)
Alternaria alternata
  MIC: 18.8 µg/mL (≈ 45 µM)
Proteus vulgaris
  MIC: 9.37 µg/mL (≈ 22.5 µM)
Bacillus pumilus
  MIC: 9.37 µg/mL (≈ 22.5 µM)
Salmonella typhi
  MIC: 4.68 µg/mL (≈ 11.2 µM)
Proteus mirabilis
  MIC: 9.37 µg/mL (≈ 22.5 µM)
Escherichia coli
  MIC: 9.37 µg/mL (≈ 22.5 µM)
Trichophyton longifusum
  MIC: 9.37 µg/mL (≈ 22.5 µM)
Aspergillus niger
  MIC: 18.8 µg/mL (≈ 45 µM)
Bacillus subtilis
  MIC: 9.37 µg/mL (≈ 22.5 µM)
Aspergillus awamori
  MIC: 18.8 µg/mL (≈ 45 µM)
